Laboratory results taken from patent US20160185774A1, “Anti-Infective Compounds” (priority 2013, published 2016).
In brackets after ≈: the same amount, converted by molar mass.

System: M. tuberculosis
Test: microbe, parasite or virus in culture
Type: cell-based
Details: Mycobacterium tuberculosis, 120 h; read-out: QUM (MIC80)

Compound `Cc1nc2cc(F)ccn2c1C(=O)NCc1ccc(N2CCC(c3ccc(Cl)cc3)CC2)cc1` [Compound 348] has an MIC80 of under 1 µM.

`CCc1nc2cc(F)ccn2c1C(=O)NCc1ccc(N2CCC(c3ccccc3)CC2)cc1` [Compound 166] showed an MIC80 of under 1 µM.

With `CCc1nc2cc(OC)ccn2c1C(=O)NCc1ccc(N2CCC(c3ccc(Cl)cc3)CC2)cc1` [Compound 21] the MIC80 was under 1 µM.

Work on `CCc1nc2cc(C(F)(F)F)ccn2c1C(=O)NCc1ccc(N2CCC(c3ccc(F)cc3)CC2)cc1` [Compound 4] yielded an MIC80 of under 1 µM.

In the case of `CCc1nc2ccc(C(F)(F)F)cn2c1C(=O)NCc1ccc(N2CCN(c3ccc(OC(F)(F)F)cc3)CC2)cc1` [Compound 188], the MIC80 is reported as under 1 µM.

`CCC1N=C2C=CC(Cl)=CN2C1C(=O)NCc1ccc2oc(C)nc2c1` (centres unmarked) [Compound 338] showed an MIC80 of under 1 µM.

`CCc1nc2cc(C(F)(F)F)ccn2c1C(=O)NCc1ccc(N2CCC(c3ccccc3)CC2)cc1` [Compound 3] showed an MIC80 of under 1 µM.

`CCc1nc2cc(Cl)ccn2c1C(=O)NCc1ccc(NC(=O)NC(C)(C)C)cc1` [Compound 277] gave an MIC80 of over 20 µM.

`CCc1nc2cc(Br)ccn2c1C(=O)NCc1ccc(N2CCC(c3ccc(C)cc3)CC2)cc1` [Compound 219] gave an MIC80 of under 1 µM.

`CCc1nc2ccc(OC)cn2c1C(=O)NCc1ccc(N2CCC(c3ccc(OC)cc3)CC2)cc1` [Compound 123] gave an MIC80 of under 1 µM.

For `CCc1nc2c(F)cccn2c1C(=O)NCc1ccc(N2CCC(c3ccc(Cl)cc3)CC2)cc1` [Compound 176], the MIC80 was under 1 µM.

In the case of `CCc1nc2ccccn2c1C(=O)NCc1ccc(N2CCN(c3ccccc3)CC2)cc1` [Compound 62], the MIC80 is reported as under 1 µM.

In the case of `CCc1nc2ccc(Br)cn2c1C(=O)NCc1ccc(N2CCC(c3ccc(F)cc3)CC2)cc1` [Compound 72], the MIC80 is reported as under 1 µM.

`CCc1nc2cc(C)ccn2c1C(=O)NCc1ccc(N2CCC(c3ccc(C(F)(F)F)cc3)CC2)cc1` [Compound 51] gave an MIC80 of under 1 µM.

`CCc1nc2c(C)cccn2c1C(=O)NCc1ccc(N2CCC(c3ccc(OC)cc3)CC2)cc1` [Compound 8] showed an MIC80 of under 1 µM.

In the case of `CCc1nc2ccc(Cl)cn2c1C(=O)NCc1ccc(N2CCC(c3ccc(C(=O)OC)cc3)CC2)cc1` [Compound 344], the MIC80 is reported as under 1 µM.

`CCc1nc2c(C(F)(F)F)cccn2c1C(=O)NCc1ccc(N2CCC(c3ccc(OC(F)(F)F)cc3)CC2)cc1` [Compound 154] showed an MIC80 of 1 to 20 µM (≈ 0.591 to 11.8 µg/mL).

`CCc1nc2ccc(Cl)cn2c1C(=O)NCc1ccc(C(=O)CN2CCOCC2)cc1` [Compound 303] showed an MIC80 of under 1 µM.

`CCc1nc2c(F)cccn2c1C(=O)NCc1ccc(N2CCC(c3ccccc3)CC2)cc1` [Compound 167] gave an MIC80 of under 1 µM.

`CCc1nc2ccc(Br)cn2c1C(=O)NCc1ccc(N2CCN(c3ccc(OC(F)(F)F)cc3)CC2)cc1` [Compound 197] was tested, and the MIC80 was under 1 µM.

In the case of `CCc1nc2ccc(Br)cn2c1C(=O)NCc1ccc(N2CCN(c3ccc(Cl)cc3)CC2)cc1` [Compound 201], the MIC80 is reported as under 1 µM.

For `CCc1nc2c(F)cccn2c1C(=O)NCc1ccc(N2CCN(c3ccc(OC(F)(F)F)cc3)CC2)cc1` [Compound 193], the MIC80 was under 1 µM.

For `CCc1nc2c(F)cccn2c1C(=O)NCc1ccc(N2CCN(c3ccc(Cl)cc3)CC2)cc1` [Compound 63], the MIC80 was under 1 µM.

With `CCc1nc2ccc(C(F)(F)F)cn2c1C(=O)NCc1ccc(N2CCN(c3ccccc3)CC2)cc1` [Compound 80] the MIC80 was under 1 µM.

In the case of `CCc1nc2c(OC)cccn2c1C(=O)NCc1ccc(N2CCN(c3ccc(OC(F)(F)F)cc3)CC2)cc1` [Compound 200], the MIC80 is reported as 1 to 20 µM (≈ 0.554 to 11.1 µg/mL).

`CCc1nc2c(Br)cccn2c1C(=O)NCc1ccc(N2CCC(c3ccc(Cl)cc3)CC2)cc1` [Compound 213] showed an MIC80 of under 1 µM.

`CCc1nc2c(Cl)cccn2c1C(=O)NCc1ccc(N2CCN(c3ccc(Cl)cc3)CC2)cc1` [Compound 47] showed an MIC80 of under 1 µM.

With `CCc1nc2c(F)cccn2c1C(=O)NCc1ccc(N2CCN(c3ccccc3)CC2)cc1` [Compound 70] the MIC80 was under 1 µM.

`CCc1nc2c(F)cccn2c1C(=O)NCc1ccc(N2CCC(c3ccc(F)cc3)CC2)cc1` [Compound 148] was tested, and the MIC80 was under 1 µM.

`Cc1ccc(C2CCN(c3ccc(CNC(=O)c4c(C)nc5cc(Cl)ccn45)cc3)CC2)cc1` [Compound 299] showed an MIC80 of under 1 µM.

`Cc1nc2ccc(F)cn2c1C(=O)NCc1ccc(N2CCC(c3ccc(C(F)(F)F)cc3)CC2)cc1` [Compound 315] was tested, and the MIC80 was under 1 µM.

`CCc1nc2c(Cl)cccn2c1C(=O)NCc1ccc(N2CCN(c3ccccc3)CC2)cc1` [Compound 64] gave an MIC80 of under 1 µM.

`CCc1nc2c(C)cccn2c1C(=O)NCc1ccc(N2CCN(c3ccc(C)cc3)CC2)cc1` [Compound 39] showed an MIC80 of under 1 µM.

In the case of `CCc1nc2ccc(Cl)cn2c1C(=O)NCc1ccc(N2CCC(c3ccc(CO)cc3)CC2)cc1` [Compound 345], the MIC80 is reported as under 1 µM.

`CCc1nc2ccc(Cl)cn2c1C(=O)NCc1ccc(C(=O)N(C)c2ccc(F)cc2)cc1` [Compound 305] was tested, and the MIC80 was 1 to 20 µM (≈ 0.465 to 9.3 µg/mL).

`CCc1nc2c(C(F)(F)F)cccn2c1C(=O)NCc1ccc(N2CCN(c3ccccc3)CC2)cc1` [Compound 84] gave an MIC80 of 1 to 20 µM (≈ 0.508 to 10.2 µg/mL).

With `CCc1nc2cc(OC)ccn2c1C(=O)NCc1ccc(N2CCC(c3ccc(OC(F)(F)F)cc3)CC2)cc1` [Compound 184] the MIC80 was under 1 µM.

For `CCc1nc2c(C(F)(F)F)cccn2c1C(=O)NCc1ccc(N2CCC(c3ccc(Cl)cc3)CC2)cc1` [Compound 22], the MIC80 was 1 to 20 µM (≈ 0.541 to 10.8 µg/mL).
